Columns and labels:
PAMPA-BBB permeability = assay type: in vitro ADME; settings: after 4 h at 37 °C in PBS, pH 7.4, mean ± SEM, n = 3; for Papp at 4 h, 500 μM: PAMPA, read-out: PAMPA-BBB Pe
Protocol: (§1) Preparative purifications over RP-HPLC were performed on a Kinetex XB C18 (5 μm, 250 × 21.2 mm) column on an Armen Spot Prep II integrated HPLC purification system (Gilson, Middleton, WI, USA) with dual-wavelength detection, with an adequately chosen combination of acetonitrile–water, and a flow rate of 15 mL/min. The purity of the compounds obtained was determined by RP-HPLC analyses on a system of two Jasco PU 2080 pumps, a Jasco AS-2055 Plus intelligent sampler connected to a JASCO LC-Net II/ADC equipped with a Jasco MD-2010 Plus PDA detector (Jasco International Co. Ltd., Hachioji, Tokyo, Japan) utilizing a Kinetex C-18 (5 μm, 250 × 4.6 mm) column (Phenomenex Inc., Torrance, CA, USA) and applying a gradient of 30%–100% aqueous AcN in 30 min followed by 100% ACN for 10 min with a flow rate of 1 mL/min. Analysis of samples from the PAMPA and kinetic solubility assays was performed the same way, by using 3-point calibrations and integrating each compound at its UV absorption maximum.
Blood–brain barrier-specific (BBB) permeability measurements were carried out us- ing the PAMPA-BBB model. […] The solutions were sonicated for 10 min at room temperature. To prepare the artificial BBB-specific membrane, 16 mg BPLE were dissolved in 600 μL of n-dodecane:n-hexane (25:75). Each well of the donor plate (MultiscreenTM-IP, MAIPNTR10, pore size […], Merck kGaA) was coated with 5 μL lipid solution and fitted into the acceptor plate containing 300 μL PBS (pH 7.4) with 5% DMSO, and 150–150 μL of the PBS solutions (made from the DMSO stock solutions) were placed on the donor plate’s artificial membrane. The sandwich plate system was covered with a tissue of wet paper and a plastic lid to avoid evaporation of the solvent, and it was incubated at 37 °C for 4 h. In the end, the initial 500 μM solutions ( cD0 ), the donor ( cDt ) and acceptor solution ( cAt ) were analysed by HPLC-UV (see Section 2.1). BBB permeability was calculated using the effective permeability equation used for iso-pH conditions described by A. Avdeef as follows. (2) Pe=−2.303/A·t−τss·1/1+rv·lg−rv+1+rv/1−MR·cDt/cD0 (3) MR=1−cDt/cD0−VAcAt/VDcD0 where A is the filter area (0.3 cm^2), VD and VA are the volumes in the donor (0.15 cm^3) and acceptor phase (0.3 cm^3), t is the incubation time (s), τss is the time to reach steady state (s), cDt is the concentration of the compound in the donor phase at time point t (mol/cm^3), cD0 is the concentration of the compound in the donor phase at time point zero (mol/cm^3), cAt is the concentration of the compound in the acceptor phase at time point t (mol/cm^3), rv is the aqueous compartment volume ratio (VD/VA).

[1] = Kinetic aqueous solubility in PBS pH 7.4; assay type: physicochemical; settings: after 2 h at 37 °C in PBS, 500 μM target concentration, mean ± SEM, n = 3; for solubility kinetic at 2 h: PBS (pH 7.4), 37 °C, pH 7.4, aqueous buffer, kinetic from dmso stock
Protocol: as §1
In a 96-well polypropylene plate (Greiner Bio-One, Kremsmünster, Austria), 15 μL stock solutions were added to 285 μL PBS (pH 7.4) to make starting donor solution with 500 μM as target concentration. For each sample, 3 replicates were measured. The samples were covered and shaken at 37 °C, 300 rpm for 2 h (Heidolph Titramax 1000, Heidolph Instruments GmbH & Co. KG, Schwabach, Germany). After that, each sample was transferred into a filter plate (MSSBLPC, Multiscreen Filter plate, Merck kGaA) and filtered (Vaccum Manifold, Merck kGaA, Darmstadt, Germany). The filtrates were transferred into HPLC vials, and acetonitrile (AcN) was added to aliquot to avoid precipitation. The final solvent ratio was AcN:PBS (70:30). Filtrate concentration was determined by HPLC-UV (see Section 2.1) using 3-points calibration.

| Structure (SMILES) | Papp at 4 h, 500 μM (PAMPA-BBB permeability) | PAMPA-BBB MR (%) (PAMPA-BBB permeability) | PAMPA-BBB Pe (PAMPA-BBB permeability) | solubility kinetic at 2 h [1] | Kinetic Solubility [1] |
| --- | --- | --- | --- | --- | --- |
| CCCCC[C@H](O)CC(=O)CCc1ccc(O)c(OC)c1 [Compound 1, (S)-5-hydroxy-1-(4-hydroxy-3-methoxyphenyl)decan-3-one] | 3.52 ± 0.24 ×10⁻⁶ cm/s | 23.8 ± 1.5% | ≥ 25 ·10^−7 cm/s | – | – |
| CCCCC[C@H](O)C[C@H](O)CCc1ccc(O)c(OC)c1 [Compound 5, (3R,5S)-1-(4-hydroxy-3-methoxyphenyl)decane-3,5-diol] | 3.39 ×10⁻⁶ cm/s | 9.1 ± 7.6% | ≥ 25 ·10^−7 cm/s | – | – |
| CCCCCc1cc(/C=C/c2ccc(O)cc2)[nH]n1 [Compound 16, (E)-4-(2-(3-pentyl-1H-pyrazol-5-yl)vinyl)phenol] | – | – | – | 89.4 ± 3.1 µM | – |
| CCCCCc1cc(/C=C/c2ccc(O)cc2)on1 [Compound 18, (E)-4-(2-(3-pentylisoxazol-5-yl)vinyl)phenol] | – | – | – | – | < LOD |
| CCCCCCCNC(=O)CCc1ccc(O)c(OC)c1 [Compound 22] | 3.22 ± 0.34 ×10⁻⁶ cm/s | 12.1 ± 5.2% | ≥ 25 ·10^−7 cm/s | – | – |
| CCCCCc1cc(CCc2ccc(O)c(OC)c2)[nH]n1 [Compound 14, 2-methoxy-4-(2-(3-pentyl-1H-pyrazol-5-yl)ethyl)phenol] | 1.58 ± 0.08 ×10⁻⁶ cm/s | 33.6 ± 4.6% | – | 277 ± 5.5 µM | – |
| CCCCC/C=C/C(=O)CCc1ccc(O)c(OC)c1 [Compound 2, 6-shogaol] | 3.17 ± 0.36 ×10⁻⁶ cm/s | 20.9 ± 3.9% | ≥ 25 ·10^−7 cm/s | > 100 µM | – |
| CCCCCCCC(=O)CCc1ccc(O)c(OC)c1 [Compound 3, 4,5-dihydro-6-shogaol] | – | -/11.0 ± 0.7% | – | 45.2 ± 2.7 µM | – |
| CCCCCc1cc(CCc2ccc(O)cc2)[nH]n1 [Compound 15, 4-(2-(3-pentyl-1H-pyrazol-5-yl)ethyl)phenol] | 2.07 ± 0.43 ×10⁻⁶ cm/s | 3.1 ± 5.7% | – | 203 ± 5.5 µM | – |
| CCCCC[C@H](O)C[C@@H](O)CCc1ccc(O)c(OC)c1 [Compound 6, (3S,5S)-1-(4-hydroxy-3-methoxyphenyl)decane-3,5-diol] | 2.74 ± 0.16 ×10⁻⁶ cm/s | 18.5 ± 2.7% | ≥ 25 ·10^−7 cm/s | – | – |
| CCCCCc1cc(/C=C/c2ccc(O)c(OC)c2)on1 [Compound 17, (E)-2-methoxy-4-(2-(3-pentylisoxazol-5-yl)vinyl)phenol] | – | – | – | 10.9 ± 2 µM | – |
| CCCCCCCC(CCc1ccc(O)c(OC)c1)=NO [Compound 4, 1-(4-hydroxy-3-methoxyphenyl)decan-3-one oxime] | – | -/4.0 ± 11.1% | – | 75.1 ± 7.3 µM | – |
